Results as given in patent EP0320366A1, “Monoclonal antibodies against phospholipase A2 from the venom of snakes of the families Elapides and Hidrophides, methods for their preparation and their use in detecting poisoning caused by these snake families” (COMMISSARIAT A L'ENERGIE ATOMIQUE, priority 1987, dated 1989).

How the values were obtained:
[1] = target: T1, notexine (PLA₂ du venin de Notechis scutatus scutatus), notexine seule (Notechis scutatus scutatus, UniProt P00608); test: Enzymatic activity of notexin by pH-stat titration of released fatty acids, Lineweaver-Burk analysis; assay type: biochemical; conditions: substrate: phosphatidylcholine emulsion 7,5-82,5 mM with sodium deoxycholate (ratio 3,7), CaCl₂ 20 mM, NaCl 0,12 M, pH 8, 40°C; notexin 0,5 µg/4 ml; read graphically; also printed as 0,034 M
T1 sequence (P00608 1-119): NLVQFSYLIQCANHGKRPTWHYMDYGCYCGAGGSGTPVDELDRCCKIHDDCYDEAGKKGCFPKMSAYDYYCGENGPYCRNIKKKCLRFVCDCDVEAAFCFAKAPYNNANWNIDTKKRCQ
Protocol: (§1) La mesure de l'activité enzymatique est réalisée à l'aide d'un appareil pH stat (Methrom). Les acides gras libérés sont titrés à pH constant (pH = 8), par une solution d'hydroxyde de Na 0,01 N à 40°C.
(§2) Le substrat est une émulsion de phosphatidylcholine (Halpert - Eaker, 1975), dans une solution de CaCl₂ 20 mM, NaCl 0,12 M, en présence de désoxycholate de sodium.
(§3) Le rapport concentration finale de phosphatidylcholine/concentration finale de désoxycholate de sodium est maintenu constant, égal à 3,7.
(§4) Les solutions initiales sont : phosphatidylcholine : 600 mM dans l'éthanol, désoxycholate de sodium : 270 mM dans H₂O. Le volume réactionnel final est de 4 ml.
(§5) Les volumes de soude ajoutés pour maintenir le pH constant sont enregistrés automatiquement en fonction du temps.
L'analyse cinétique de la réaction enzymatique a été faite par deux méthodes : mesure de Vi et mesure de Vmax.
Pour l'étude de Vi = f( [S] ) et 1/Vi = f(1/ [S]), à concentration de notexine constante ( [Et] = 0,5 µg/4 ml), la concentration de substrat varie de 7,5 mM à 82,5 mM. La mesure est réalisée en absence et en présence d'anticorps monoclonaux polyspécifiques MN₁, en excès molaire de 10 par rapport à la notexine. […]

[2] = target: T2, notexine (PLA₂ du venin de Notechis scutatus scutatus) en présence d'anticorps MN₁ (Notechis scutatus scutatus, UniProt P00608); test: Enzymatic activity of notexin pre-incubated with monoclonal antibody MN₁, by pH-stat titration and Lineweaver-Burk analysis; assay type: biochemical; conditions: same substrate and conditions; MN₁ in 10-fold molar excess over notexin, pre-incubated 1 h at room temperature; read graphically; also printed as 0,034 M
T2 sequence (P00608 1-119): T1 sequence (P00608 1-119)
Protocol: as §1, §2, §3, §4, §5
Les anticorps monoclonaux sont dialysés pendant 24 heures dans la solution de CaCl₂ utilisée pour effectuer les mesures, afin d'éviter une modification du pH du milieu réactionnel, lors de l'addition des anticorps. Ils sont incubés avec la notexine pendant une heure à température ambinate.
L'activité enzymatique de la notexine ainsi traitée, est alors mesurée.
L'analyse cinétique de la réaction enzymatique a été faite par deux méthodes : mesure de Vi et mesure de Vmax. […]

phosphatidylcholine was tested, and the Km [1] was 34 mM and the Km [2] was 34 mM.
